Laboratory results reported in US7662576B2, “Method for identifying ester coolers” (International Flavors & Fragrances Inc., priority 2007, dated 2010).
“Also recorded” adds a separate entry of the source.

What was measured:
[1] = cited from earlier work; for Relative Cooling Strengths: compared to (−)-Menthol at 100, source Erman (2003); for relative cooling strength: with respect to WS-3 at 10.0, U.S. Patent Application No. 20050265930
mouse TRPA1 channel = mouse TRPA1 channel (Mus musculus, UniProt Q8BLA8); details: literature; cited from earlier work
TRPM8 [2] = molecular target: TRPM8 (Homo sapiens, UniProt Q7Z2W7); assay: TRPM8 FLIPR analysis (calcium, Fluo4NW); type: cell-based; details: for comparison of TRPM8 and TRPA1 response / response of TRPM8 channel: FLIPR; for comparison of TRPM8 and TRPA1 response: TRPM8 versus TRPA1; for response of TRPM8 channel: result in words; for temporal response: FIG. 2
Experimental: (§1) Materials. Fluo4NW solution was prepared by solubilizing one Fluo4NW bottle (Molecular Probes #F36206, component A) in 16 mL of Tyrode buffer (pH 7.4, 130 mM NaCl, 5 mM KCl, 2 mM CaCl2, 1 mM MgCl2, 5 mM NaHCO3, 20 mM HEPES). To the resulting solution was then added 100 μL of water-soluble probenecid (Molecular Probes #F36206, component B).
(§2) Cell Preparation. Cells were trypsinized and 10,000 cells were dispensed per well in poly-lysine-coated, black, clear-bottom 384-well plates (35 μL/well in DMEM without antibiotics). Cells were incubated for 24 hours at 37° C. in 5% CO2. The medium was completely eliminated and 20 (TRPA1) or 40 (TRPM8) μL/well of Fluo4NW solution was added to the plates. Cells were incubated for 1 hour at room temperature protected from light. Two addition kinetic measurements were recorded on the instrument for 7.5 (TRPA1) or 15 (TRPM8) minutes.

human TRPA1 = molecular target: T1, human TRPA1 (Homo sapiens, UniProt O75762); assay: TRPA1 FLIPR analysis (calcium, Fluo4NW) in TREX FLP-IN HEK 293 cells expressing TRPA1; type: cell-based; details: result in words
T1 construct: expressed in transfected cells
Experimental: Preferred assays to measure TRPA1 channel activity are cell-based assays that utilize cells loaded with ion or voltage-sensitive dyes to report TRPA1 activation. By way of illustration, an inducible TRPA1 cell line was created by stably introducing TRPA1 into TREX-FLPN cells (INVITROGEN). […] In this assay, cells were incubated with a suitable flouroscent dye. […] After obtaining a baseline, various cooling compounds were added and fluorescence measured for several minutes.
as §1, §2
NotI and XhoI restriction sites were also added to the ends to facilitate cloning into expression vectors.
The TRPA1 cDNA was cloned into two expression vectors, pcDNA5/FRT and pcDNA5/FRT/TO (INVITROGEN), using the NotI and XhoI sites. The former vector allows for constitutive expression in mammalian cells the latter for inducible expression in same. Restriction digests, ligations and transformations were performed using routine molecular biological techniques, wherein restriction enzymes were obtained from New England Biolabs, a rapid ligation kit from Roche and competent cells (Max Efficiency DH5 t1 phage-resistant) from INVITROGEN. […]

TRPA1 = details: literature; cited from earlier work
TRPM8 [3] = molecular target: TRPM8 (Mus musculus, UniProt Q8R4D5); details: Behrendt et al. (2004); cited from earlier work
Chain of TRPM8 (Mus musculus, UniProt Q8R4D5) (Q8R4D5 whole entry): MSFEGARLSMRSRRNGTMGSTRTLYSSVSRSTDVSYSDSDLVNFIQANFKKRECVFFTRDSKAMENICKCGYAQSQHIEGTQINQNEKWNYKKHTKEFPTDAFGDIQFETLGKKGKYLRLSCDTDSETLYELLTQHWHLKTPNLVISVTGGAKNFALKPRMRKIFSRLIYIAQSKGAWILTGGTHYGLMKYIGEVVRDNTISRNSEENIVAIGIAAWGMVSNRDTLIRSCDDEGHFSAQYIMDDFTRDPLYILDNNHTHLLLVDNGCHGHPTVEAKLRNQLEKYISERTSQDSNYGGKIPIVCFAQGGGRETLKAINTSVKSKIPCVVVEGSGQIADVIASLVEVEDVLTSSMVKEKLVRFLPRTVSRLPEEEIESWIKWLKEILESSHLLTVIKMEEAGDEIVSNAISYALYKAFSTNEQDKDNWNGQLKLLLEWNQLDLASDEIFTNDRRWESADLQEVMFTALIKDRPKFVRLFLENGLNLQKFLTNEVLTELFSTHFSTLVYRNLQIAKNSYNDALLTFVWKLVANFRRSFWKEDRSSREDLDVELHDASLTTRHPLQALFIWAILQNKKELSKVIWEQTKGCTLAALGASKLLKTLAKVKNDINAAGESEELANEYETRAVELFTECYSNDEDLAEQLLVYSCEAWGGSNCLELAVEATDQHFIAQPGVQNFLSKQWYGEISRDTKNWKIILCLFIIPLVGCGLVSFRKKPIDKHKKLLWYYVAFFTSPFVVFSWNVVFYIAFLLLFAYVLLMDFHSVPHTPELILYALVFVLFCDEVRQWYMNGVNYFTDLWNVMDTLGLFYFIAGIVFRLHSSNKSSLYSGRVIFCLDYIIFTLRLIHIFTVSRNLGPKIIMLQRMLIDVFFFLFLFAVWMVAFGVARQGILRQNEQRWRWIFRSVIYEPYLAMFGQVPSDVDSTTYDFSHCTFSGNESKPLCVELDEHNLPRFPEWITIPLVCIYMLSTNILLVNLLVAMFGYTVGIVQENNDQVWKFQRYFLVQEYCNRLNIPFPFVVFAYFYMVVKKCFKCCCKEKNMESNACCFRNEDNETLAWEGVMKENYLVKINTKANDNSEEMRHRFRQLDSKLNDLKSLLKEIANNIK

Chain of TRPM8 (Homo sapiens, UniProt Q7Z2W7) (Q7Z2W7 whole entry, species assumed): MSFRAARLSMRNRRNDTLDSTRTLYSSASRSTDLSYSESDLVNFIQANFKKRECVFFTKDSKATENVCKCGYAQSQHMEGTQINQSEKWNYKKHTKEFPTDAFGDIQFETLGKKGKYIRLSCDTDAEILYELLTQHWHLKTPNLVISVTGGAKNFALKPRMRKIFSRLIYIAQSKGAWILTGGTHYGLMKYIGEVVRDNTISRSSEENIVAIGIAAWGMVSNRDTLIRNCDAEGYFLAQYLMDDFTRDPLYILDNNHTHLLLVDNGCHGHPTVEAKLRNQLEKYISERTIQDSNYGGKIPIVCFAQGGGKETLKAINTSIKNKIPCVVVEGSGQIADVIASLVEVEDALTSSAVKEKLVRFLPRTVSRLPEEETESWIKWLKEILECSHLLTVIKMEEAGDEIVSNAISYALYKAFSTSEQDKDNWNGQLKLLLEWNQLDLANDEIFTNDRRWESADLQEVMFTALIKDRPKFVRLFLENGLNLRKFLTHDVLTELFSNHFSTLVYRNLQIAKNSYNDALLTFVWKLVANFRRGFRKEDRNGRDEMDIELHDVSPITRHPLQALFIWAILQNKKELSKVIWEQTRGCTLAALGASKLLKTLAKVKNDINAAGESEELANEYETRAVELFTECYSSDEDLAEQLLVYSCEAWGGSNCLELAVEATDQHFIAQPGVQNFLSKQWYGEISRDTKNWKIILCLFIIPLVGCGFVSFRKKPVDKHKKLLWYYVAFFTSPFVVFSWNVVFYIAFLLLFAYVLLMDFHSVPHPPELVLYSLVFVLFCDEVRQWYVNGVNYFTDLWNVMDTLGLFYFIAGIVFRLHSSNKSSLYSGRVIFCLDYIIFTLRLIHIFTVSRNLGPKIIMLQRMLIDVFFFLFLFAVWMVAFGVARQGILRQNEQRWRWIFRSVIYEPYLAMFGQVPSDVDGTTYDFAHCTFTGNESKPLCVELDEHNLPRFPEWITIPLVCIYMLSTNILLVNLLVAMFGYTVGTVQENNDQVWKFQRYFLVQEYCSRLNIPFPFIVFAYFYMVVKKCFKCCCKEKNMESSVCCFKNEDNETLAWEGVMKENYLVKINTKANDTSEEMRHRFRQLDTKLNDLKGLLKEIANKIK
Chain of mouse TRPA1 channel (Q8BLA8 whole entry): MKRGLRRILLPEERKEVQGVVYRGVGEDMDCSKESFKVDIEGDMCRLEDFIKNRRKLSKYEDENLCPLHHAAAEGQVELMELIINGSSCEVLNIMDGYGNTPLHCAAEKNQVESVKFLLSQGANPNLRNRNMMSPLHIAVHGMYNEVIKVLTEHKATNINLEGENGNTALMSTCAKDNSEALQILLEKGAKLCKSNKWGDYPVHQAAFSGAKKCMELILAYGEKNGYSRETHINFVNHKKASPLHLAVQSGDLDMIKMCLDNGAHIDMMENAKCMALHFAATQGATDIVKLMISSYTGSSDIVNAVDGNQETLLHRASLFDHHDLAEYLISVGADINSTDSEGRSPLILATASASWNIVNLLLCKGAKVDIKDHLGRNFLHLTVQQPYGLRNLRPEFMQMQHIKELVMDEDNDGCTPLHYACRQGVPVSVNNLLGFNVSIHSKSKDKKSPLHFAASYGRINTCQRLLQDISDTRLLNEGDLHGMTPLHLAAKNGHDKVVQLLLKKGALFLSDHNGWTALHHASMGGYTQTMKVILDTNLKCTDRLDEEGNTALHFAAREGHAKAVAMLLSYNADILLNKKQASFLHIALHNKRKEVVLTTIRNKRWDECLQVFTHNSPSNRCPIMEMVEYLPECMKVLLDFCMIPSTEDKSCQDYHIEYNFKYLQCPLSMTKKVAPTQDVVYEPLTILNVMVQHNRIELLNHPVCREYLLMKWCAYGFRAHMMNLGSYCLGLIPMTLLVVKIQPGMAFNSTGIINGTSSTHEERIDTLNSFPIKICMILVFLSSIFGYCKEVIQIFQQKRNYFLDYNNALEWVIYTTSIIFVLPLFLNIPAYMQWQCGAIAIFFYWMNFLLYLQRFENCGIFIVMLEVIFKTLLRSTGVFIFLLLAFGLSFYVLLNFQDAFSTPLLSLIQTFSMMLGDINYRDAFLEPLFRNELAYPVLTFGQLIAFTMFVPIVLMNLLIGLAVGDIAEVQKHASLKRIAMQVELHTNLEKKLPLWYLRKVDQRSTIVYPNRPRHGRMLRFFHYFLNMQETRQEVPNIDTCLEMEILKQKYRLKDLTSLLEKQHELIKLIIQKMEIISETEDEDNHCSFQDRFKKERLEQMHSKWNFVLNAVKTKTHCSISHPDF
T1 sequence (O75762 whole entry): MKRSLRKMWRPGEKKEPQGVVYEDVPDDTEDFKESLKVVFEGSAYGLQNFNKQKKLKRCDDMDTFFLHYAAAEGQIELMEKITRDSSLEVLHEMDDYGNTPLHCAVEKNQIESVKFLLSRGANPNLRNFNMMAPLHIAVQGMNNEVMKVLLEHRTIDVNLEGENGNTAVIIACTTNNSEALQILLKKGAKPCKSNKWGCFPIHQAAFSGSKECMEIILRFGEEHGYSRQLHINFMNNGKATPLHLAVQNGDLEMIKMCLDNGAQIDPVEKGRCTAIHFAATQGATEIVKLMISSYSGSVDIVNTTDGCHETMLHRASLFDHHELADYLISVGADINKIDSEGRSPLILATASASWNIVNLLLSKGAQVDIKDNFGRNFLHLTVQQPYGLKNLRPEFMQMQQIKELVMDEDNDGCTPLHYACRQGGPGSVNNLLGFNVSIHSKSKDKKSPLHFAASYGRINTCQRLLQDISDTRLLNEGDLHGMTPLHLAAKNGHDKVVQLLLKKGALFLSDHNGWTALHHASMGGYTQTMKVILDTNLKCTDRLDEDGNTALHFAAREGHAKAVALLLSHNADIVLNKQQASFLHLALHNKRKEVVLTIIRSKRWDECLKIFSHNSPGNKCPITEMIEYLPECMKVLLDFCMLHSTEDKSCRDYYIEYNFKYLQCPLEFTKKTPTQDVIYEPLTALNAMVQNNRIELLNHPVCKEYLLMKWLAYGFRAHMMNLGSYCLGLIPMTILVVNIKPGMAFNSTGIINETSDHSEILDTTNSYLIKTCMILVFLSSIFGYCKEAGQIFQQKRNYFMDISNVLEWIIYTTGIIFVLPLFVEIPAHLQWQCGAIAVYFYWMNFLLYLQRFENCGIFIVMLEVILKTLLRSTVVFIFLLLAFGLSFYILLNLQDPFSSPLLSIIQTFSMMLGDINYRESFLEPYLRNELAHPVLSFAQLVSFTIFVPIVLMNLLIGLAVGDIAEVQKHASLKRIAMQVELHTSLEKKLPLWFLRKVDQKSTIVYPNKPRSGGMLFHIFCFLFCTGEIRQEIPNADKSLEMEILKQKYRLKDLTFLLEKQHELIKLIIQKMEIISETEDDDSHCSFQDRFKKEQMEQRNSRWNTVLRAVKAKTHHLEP

Compound: 1-glyceryl p-menthane-3-carboxylate [WS-30]
- Relative Cooling Strengths [1]: 22.5
- relative cooling strength [1]: about 1.5

Compound: CC1CCC(C(C)C)C(O)C1 (single isomer, unassigned; (-)) [(−)-Menthol]
- Relative Cooling Strengths [1]: 100

Compound: CC(C)[C@@H]1CC[C@@H](C)C[C@H]1OC[C@@H](O)CO [(2S)-3-1-menthoxy)propane-1,2-diol]
- Relative Cooling Strengths [1]: 39.5

Compound: COc1ccc(NC(=O)C2CC(C)CCC2C(C)C)cc1 (stereo not shown) [WS-12, N-(4-methoxyphenyl)-p-menthane-3-carboxamide]
- Relative Cooling Strengths [1]: 150

Compound: (+)-Neoisomenthol
- Relative Cooling Strengths [1]: 3

Compound: CC1CCC(C(C)C)C(C(=O)NC(C)(C)C)C1 (stereo not shown) [WS-14, N-t-butyl-p-menthane-3-carboxamide]
- Relative Cooling Strengths [1]: 75
- relative cooling strength [1]: about 5.0

Compound: C=CCc1ccc(O)c(OC)c1 [eugenol]
- activation of mouse TRPA1 channel (mouse TRPA1 channel): activated

Compound: CCCCC[C@H](O)CC(=O)CCc1ccc(O)c(OC)c1 [gingerol]
- activation of mouse TRPA1 channel (mouse TRPA1 channel): activated

Compound: CC(C)[C@@H]1CC[C@@H](C)C[C@H]1OC[C@H](O)CO [(2R)-3-1-menthoxy)propane-1,2-diol]
- Relative Cooling Strengths [1]: 15.8

Compound: CNC(=O)C(C)(C(C)C)C(C)C [WS-23, 2-Isopropyl-N,2,3-trimethylbutyramide]
- Relative Cooling Strengths [1]: 75
- relative cooling strength [1]: about 5.0

Compound: (−)-Neoisomenthol
- Relative Cooling Strengths [1]: 13

Compound: CC1CCC(C(C)C)C(O)C1 (single isomer, unassigned; (+)) [(+)-Menthol]
- Relative Cooling Strengths [1]: 27

Compound: CC(C)[C@@H]1CC[C@@H](C)C[C@H]1OC(=O)CCCC(=O)O [monomenthyl glutarate]
- relative cooling strength [1]: about 3.5

Compound: CNC(=O)C1C(C)CCCC1(C)C (stereo not shown) [N,2,2,6-Tetramethylcyclohexane-1-carboxamide]
- relative cooling strength [1]: about 1.0

Compound: Ethyl 3-(p-menthane-3-carboxamido)acetate [WS-5]
- comparison of TRPM8 and TRPA1 response (TRPM8 [2]): TRPM8 responding better
- response of TRPM8 channel (TRPM8 [2]): responded
- Relative Cooling Strengths [1]: 400
- relative cooling strength [1]: about 16.7
- response of TRPA1 (human TRPA1): responded

Compound: O=CC=Cc1ccccc1 [cinnamaldehyde]
- activation of mouse TRPA1 channel (mouse TRPA1 channel): activated

Compound: CC(C)[C@@H]1CC[C@H](C)C[C@H]1O [(+)-Isomenthol]
- Relative Cooling Strengths [1]: 11

Compound: C=CCN=C=S [mustard oil, allyl isothiocyanate]
- activation of TRPA1 (TRPA1): activates TRPA1

Compound: NC(=O)CI [iodoacetamide]
- activation of TRPA1 (TRPA1): bind and activate TRPA1

Compound: CC1CCC(C(C)(C)O)C(O)C1 (stereo not shown) [PMD 38, p-menthane-3,8-diol]
- Relative Cooling Strengths [1]: 11

Compound: CC(C)[C@H]1CC[C@@H](C)C[C@@H]1O [(−)-Isomenthol]
- Relative Cooling Strengths [1]: 3

Compound: CC1CCC(C(C)C)C(OC(=O)C(C)O)C1 (stereo not shown) [Frescolat MGA, menthyl lactate]
- Relative Cooling Strengths [1]: 41

Compound: (−)-isopulegol [Coolact P]
- Relative Cooling Strengths [1]: 25

Compound: CC1CCC(C(C)C)C(O)C1 (single isomer, unassigned; (-)) [(−)-Neomenthol]
- Relative Cooling Strengths [1]: 3

Compound: CC1CCC(C(C)C)C(OC(=O)C(C)O)C1 (stereo not shown) [Menthyl Lactate]
- temporal response (TRPM8 [2]; TRPM8 FLIPR): quick response with a quick loss of signal
- Emax (TRPM8 [2]; TRPM8 FLIPR, read-out: response relative to the maximal response of amide coolers): ~50%
- response relative to the level of menthol (TRPM8 [3]): 50%
- relative cooling strength [1]: about 2.9

Compound: COC(=O)c1ccccc1O [methyl salicylate]
- activation of mouse TRPA1 channel (mouse TRPA1 channel): activated

Compound: CC(C)[C@@H]1CC[C@@H](C)C[C@H]1[O+](C)C(=O)CCCC(=O)O [Cooler 2]
- response of TRPM8 channel (TRPM8 [2]): did not respond well

Compound: CC(=O)CC(=O)OC1CC(C)CCC1C(C)C (stereo not shown) [Ultracool 7]
- response of TRPM8 channel (TRPM8 [2]): did not respond well; also recorded: no response
- response of TRPA1 (human TRPA1): responded to a wide range of concentrations

Compound: CC1CCC(C(C)C)C(C(=O)OCCO)C1 (stereo not shown) [WS-4, Ethyleneglycol p-menthane-3-carboxylate]
- Relative Cooling Strengths [1]: 23

Compound: CCNC(=O)C1CC(C)CCC1C(C)C (stereo not shown) [WS-3, N-ethyl-p-menthane-3-carboxamide]
- comparison of TRPM8 and TRPA1 response (TRPM8 [2]): TRPM8 responding better
- response of TRPM8 channel (TRPM8 [2]): responded
- Relative Cooling Strengths [1]: 150
- relative cooling strength [1]: 10.0
- response of TRPA1 (human TRPA1): responded

Compound: CS(=O)(=O)SCCN [(2-aminoethyl)methanethiosulfonate]
- activation of TRPA1 (TRPA1): bind and activate TRPA1

Compound: CC(C)[C@@H]1CC[C@@H](C)C[C@H]1OCC(O)CO (mixture of isomers) [(2RS)-3-1-menthoxy)propane-1,2-diol]
- Relative Cooling Strengths [1]: 22.5

Compound: CC(C)[C@@H]1CC[C@@H](C)C[C@@H]1O [(+)-Neomenthol]
- Relative Cooling Strengths [1]: 32

Compound: CC(C)[C@@H]1CC[C@@H](C)C[C@H]1O [Menthol]
- temporal response (TRPM8 [2]; TRPM8 FLIPR): quick response with deterioration over time
